Data reported in patent US20240294531A1, “COVALENT HETEROCYCLES AND USES THEREOF” (Kumquat Biosciences Inc., priority 2022, published 2024).

How the values were obtained:
BTK wildtype protein = BTK wildtype protein (Homo sapiens (Human), UniProt Q06187); test: BTK wildtype HTRF displacement assay; assay type: binding; conditions: 1-hour incubation; read-out: BTK (wt) IC50
Outline: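 Full-length N-terminal GST-tagged BTK incubated 1 h at room temperature with compound (6 doses, four-fold dilutions from 5 μM top) plus kinase tracer 239 and anti-GST-Tb antibody. Tracer displacement read as TR-FRET 665/620 ratio, background-subtracted using no-protein control. IC50 from four-parameter fit constrained 0–100% inhibition.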

BTK C481S protein = BTK C481S protein (Homo sapiens (Human), UniProt Q06187, C481S); test: BTK C481S HTRF displacement assay; assay type: binding; conditions: 1-hour incubation
Outline: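 N-terminal GST-tagged BTK C481S (2-659) incubated 1 hour at room temperature with compound (6 doses, four-fold from 5 μM), 50 nM kinase tracer 239 and anti-GST-Tb antibody. TR-FRET 665/620 ratio, background-subtracted; IC50 from constrained four-parameter fit. KI=IC50/(1+[Tracer]/Kd), tracer Kd 54 nM.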

Chain of BTK wildtype protein (Q06187 2-659): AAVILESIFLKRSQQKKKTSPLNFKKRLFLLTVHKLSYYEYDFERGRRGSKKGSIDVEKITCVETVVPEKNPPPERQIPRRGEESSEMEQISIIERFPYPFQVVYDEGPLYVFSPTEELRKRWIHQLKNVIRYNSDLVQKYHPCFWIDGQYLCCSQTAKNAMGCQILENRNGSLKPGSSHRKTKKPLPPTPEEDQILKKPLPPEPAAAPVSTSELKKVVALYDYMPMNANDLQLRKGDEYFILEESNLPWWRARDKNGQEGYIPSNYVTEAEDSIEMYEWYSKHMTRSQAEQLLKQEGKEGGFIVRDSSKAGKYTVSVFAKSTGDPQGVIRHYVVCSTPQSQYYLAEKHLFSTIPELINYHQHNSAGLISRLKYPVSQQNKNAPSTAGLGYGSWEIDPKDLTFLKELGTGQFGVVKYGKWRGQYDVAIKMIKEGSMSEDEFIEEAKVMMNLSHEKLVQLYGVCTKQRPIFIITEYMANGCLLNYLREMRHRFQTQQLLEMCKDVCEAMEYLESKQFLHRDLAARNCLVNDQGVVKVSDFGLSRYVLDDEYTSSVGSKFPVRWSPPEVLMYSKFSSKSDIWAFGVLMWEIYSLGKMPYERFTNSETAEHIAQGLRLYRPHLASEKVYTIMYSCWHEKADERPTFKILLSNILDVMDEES
Chain of BTK C481S protein (Q06187 2-659 C481S): as the sequence (Q06187 2-659) above, with C480S counted along it

Compound | IC50 (BTK wildtype protein) [µM] | IC50 (BTK C481S protein) [µM]
NC(=O)c1cn(C[C@@H]2CCCCN2C(=O)n2cncn2)nc1-c1ccc(Oc2ccccc2)cc1 [Compound 175, (S)-1-((1-(1H-1,2,4-triazole-1-carbonyl)piperidin-2-yl)methyl)-3-(4-phenoxyphenyl)-1H-pyrazole-4-carboxamide] | > 1 | > 1
CN(C(=O)n1cncn1)[C@H]1CCCC[C@H](n2nc(-c3ccc(Oc4ccccc4)cc3)c(C(N)=O)c2N)C1 [Compound 252, N-((1S,3S)-3-(5-amino-4-carbamoyl-3-(4-phenoxyphenyl)-1H-pyrazol-1-yl)cycloheptyl)-N-methyl-1H-1,2,4-triazole-1-carboxamide] | ≤ 1 | ≤ 1
CC[C@@H](Cn1nc(-c2ccc(CNC(=O)c3cc(F)ccc3OC)cc2)c2c(N)ncnc21)N(C)C(=O)n1cncn1 [Compound 204, (S)-N-(1-(4-amino-3-(4-((5-fluoro-2-methoxybenzamido)methyl)phenyl)-1H-pyrazolo[3,4-d]pyrimidin-1-yl)butan-2-yl)-N-methyl-1H-1,2,4-triazole-1-carboxamide] | ≤ 1 | ≤ 1
COc1ccc(F)cc1C(=O)NCc1ccc(-c2nn(Cc3ccccc3N(C)C(=O)n3cncn3)c3ncnc(N)c23)cc1 [Compound 141, N-(2-((4-amino-3-(4-((5-fluoro-2-methoxybenzamido)methyl)phenyl)-1H-pyrazolo[3,4-d]pyrimidin-1-yl)methyl)phenyl)-N-methyl-1H-1,2,4-triazole-1-carboxamide] | ≤ 1 | > 1
Cc1[nH]c2c(C(N)=O)cc(F)c(N3CCC4(CCN4C(=O)n4cncn4)C3)c2c1C (stereo not drawn) [Compound 105, 4-(1-(1H-1,2,4-triazole-1-carbonyl)-1,6-diazaspiro[3.4]octan-6-yl)-5-fluoro-2,3-dimethyl-1H-indole-7-carboxamide] | ≤ 1 | ≤ 1
NC(=O)c1c(-c2ccc(Oc3ccccc3)cc2)nn2c1NCC1CN(C(=O)n3cncn3)CCC12 (stereo not drawn) [Compound 306, 2-(4-phenoxyphenyl)-7-(1H-1,2,4-triazole-1-carbonyl)-4,5,5a,6,7,8,9,9a-octahydropyrazolo[1,5-a]pyrido[3,4-e]pyrimidine-3-carboxamide] | ≤ 1 | ≤ 1
COc1ccc(F)cc1C(=O)NCc1ccc(-c2nn(C[C@H]3CCC[C@H]3CN(C)C(=O)n3cncn3)c3ncnc(N)c23)cc1 [Compound 307, N-(((1R,2S)-2-((4-amino-3-(4-((5-fluoro-2-methoxybenzamido)methyl)phenyl)-1H-pyrazolo [3,4-d]pyrimidin-1-yl)methyl)cyclopentyl)methyl)-N-methyl-1H-1,2,4-triazole-1-carboxamide] | ≤ 1 | ≤ 1
COc1ccc(F)cc1C(=O)NCc1ccc(-c2nn(CC3CN(C(=O)n4cncn4)C3)c(N)c2C(N)=O)cc1 [Compound 270, 1-((1-(1H-1,2,4-triazole-1-carbonyl)azetidin-3-yl)methyl)-5-amino-3-(4-((5-fluoro-2-methoxybenzamido)methyl)phenyl)-1H-pyrazole-4-carboxamide] | ≤ 1 | ≤ 1
COc1ccc(F)cc1C(=O)NCc1ccc(-c2nn(C[C@H](C)N(C)C(=O)n3cncn3)c3ncnc(N)c23)cc1 [Compound 315, (S)-N-(1-(4-amino-3-(4-((5-fluoro-2-methoxybenzamido)methyl)phenyl)-1H-pyrazolo[3,4-d]pyrimidin-1-yl)propan-2-yl)-N-methyl-1H-1,2,4-triazole-1-carboxamide] | > 1 | > 1
CCN(C(=O)n1cncn1)C1CCCC(n2nc(-c3ccc(Oc4ccccc4)cc3)c3c(N)ncnc32)C1 (stereo not drawn) [Compound 109, N-(3-(4-amino-3-(4-phenoxyphenyl)-1H-pyrazolo[3,4-d]pyrimidin-1-yl)cyclohexyl)-N-ethyl-1H-1,2,4-triazole-1-carboxamide] | ≤ 1 | ≤ 1
COc1ccc(F)cc1C(=O)NCc1ccc(-c2nn(C3(CN(C)C(=O)n4cnc(C#N)n4)CC3)c3ncnc(N)c23)cc1 [Compound 117, N-((1-(4-amino-3-(4-((5-fluoro-2-methoxybenzamido)methyl)phenyl)-1H-pyrazolo[3,4-d]pyrimidin-1-yl)cyclopropyl)methyl)-3-cyano-N-methyl-1H-1,2,4-triazole-1-carboxamide] | ≤ 1 | > 1
COc1ccc(F)cc1C(=O)NCc1ccc(-c2nn(C3(CCN(C)C(=O)n4cncn4)CC3)c3ncnc(N)c23)cc1 [Compound 225, N-(2-(1-(4-amino-3-(4-((5-fluoro-2-methoxybenzamido)methyl)phenyl)-1H-pyrazolo[3,4-d]pyrimidin-1-yl)cyclopropyl)ethyl)-N-methyl-1H-1,2,4-triazole-1-carboxamide] | ≤ 1 | > 1
COc1ccc(F)cc1C(=O)NCc1ccc(-c2nn(CC3CCCN3C(=O)n3cncn3)c(N)c2C(N)=O)cc1 (stereo not drawn) [Compound 293, 1-((1-(1H-1,2,4-triazole-1-carbonyl)pyrrolidin-2-yl)methyl)-5-amino-3-(4-((5-fluoro-2-methoxybenzamido)methyl)phenyl)-1H-pyrazole-4-carboxamide] | ≤ 1 | ≤ 1
COc1ccc(F)cc1C(=O)NCc1ccc(-c2nn(CC3CC(C)CCN3C(=O)n3cncn3)c3ncnc(N)c23)cc1 (stereo not drawn) [Compound 112, N-(4-(4-amino-1-((4-methyl-1-(1H-1,2,4-triazole-1-carbonyl)piperidin-2-yl)methyl)-1H-pyrazolo[3,4-d]pyrimidin-3-yl)benzyl)-5-fluoro-2-methoxybenzamide] | > 1 | > 1
COc1ccc(C)cc1C(=O)NCc1ccc(-c2nn(CC3CCCCN3C(=O)n3cncn3)c3ncnc(N)c23)cc1 (stereo not drawn) [Compound 217, N-(4-(1-((1-(1H-1,2,4-triazole-1-carbonyl)piperidin-2-yl)methyl)-4-amino-1H-pyrazolo[3,4-d]pyrimidin-3-yl)benzyl)-2-methoxy-5-methylbenzamide] | ≤ 1 | > 1
CN(C(=O)n1cncn1)c1ccccc1C1CCNc2c(C(N)=O)c(-c3ccc(Oc4ccccc4)cc3)nn21 (stereo not drawn) [Compound 305, 7-(2-(N-methyl-1H-1,2,4-triazole-1-carboxamido)phenyl)-2-(4-phenoxyphenyl)-4,5,6,7-tetrahydropyrazolo[1,5-a] pyrimidine-3-carboxamide] | > 1 | > 1
COc1ccc(F)cc1C(=O)NCc1ccc(-c2nn(C[C@H]3CCCCN3C(=O)n3cncn3)c3ncnc(N)c23)cc1 [Compound 104, (R)-N-(4-(1-((1-(1H-1,2,4-triazole-1-carbonyl)piperidin-2-yl)methyl)-4-amino-1H-pyrazolo[3,4-d]pyrimidin-3-yl)benzyl)-5-fluoro-2-methoxybenzamide] | > 1 | ≤ 1
NC(=O)c1c(-c2ccc(Oc3ccccc3)cc2)nn2c1NCC[C@H]2[C@@H]1CCCCN1C(=O)n1cncn1 [Compound 223, (S)-7-((S)-1-(1H-1,2,4-triazole-1-carbonyl)piperidin-2-yl)-2-(4-phenoxyphenyl)-4,5,6,7-tetrahydropyrazolo[1,5-a] pyrimidine-3-carboxamide] | > 1 | > 1
